Reference: ChEMBL document CHEMBL6120933, “Improving Anti-HIV activity and pharmacokinetics of enfuvirtide (T20) by modification with oligomannose” (Eur J Med Chem, 2024)

Tested on: Human immunodeficiency virus 1
Assay: Antiviral activity against HIV-1 pseudovirus infected in HEK293T cell transfected with DC-SIGN and luciferase assessed as inhibition of viral entry into cells at 500 uM preincubated with cells for 2 hrs followed by virus addition and measured after 4 hrs by p24 ELISA relative to control
Assay type: functional
Conditions: Human immunodeficiency virus 1, HEK-293T, time 6 hrs

With `[N-]=[N+]=NCCO[C@H]1O[C@H](CO[C@H]2O[C@H](CO)[C@@H](O)[C@H](O)[C@@H]2O[C@H]2O[C@H](CO)[C@@H](O)[C@H](O)[C@@H]2O)[C@@H](O)[C@H](O[C@H]2O[C@H](CO)[C@@H](O)[C@H](O)[C@@H]2O[C@H]2O[C@H](CO)[C@@H](O)[C@H](O)[C@@H]2O)[C@@H]1O` the inhibition at 500 µM was 18%.
